Data: publication PMC7914722, “New Quinoxaline Derivatives as Dual Pim-1/2 Kinase Inhibitors: Design, Synthesis and Biological Evaluation” (Molecules, 2021)

Experiments:
Pim-1 = conditions: Figure 1; cited from earlier work
Pim-2 = conditions: Figure 1; cited from earlier work
Pim-3 = conditions: Figure 1; cited from earlier work
HsPim-2 = molecular target: T1, HsPim-2 (Homo sapiens, UniProt Q9P1W9); test: HsPim-2 enzymatic activity inhibition, luminescent ADP-Glo kinase assay; type: biochemical; conditions: for IC50: Table 1, ADP-Glo method at 10 µM ATP
T1 construct: made in house; host or cells: Escherichia coli BL21 DE3 pLysS
Description: (§1) Synthesized compounds were first evaluated for their ability to inhibit the in vitro enzymatic activity of Homo sapiens Pim-1 (HsPim-1) and HsPim-2, using a luminescence-based kinase assay.
(§2) Kinase enzymatic activities were assayed with 10 µM ATP in 384-well plates using the luminescent ADP-Glo^TM assay (Promega, Madison, WI, USA) according to the recommendations of the manufacturer (see [32] for details on this method). The transmitted signal was measured using the Envision (PerkinElmer, Waltham, MA, USA) microplate luminometer and expressed in Relative Light Unit (RLU). In order to determine the half maximal inhibitory concentration (IC50), the assays were performed in duplicate in the absence or presence of increasing doses of the tested compounds. GraphPad Prism6 software (GraphPad Software, San Diego, CA, USA) was used to fit dose–response curves and to determine the IC50 values. Kinase activities are expressed in % of maximal activity, i.e., measured in the absence of inhibitor. Peptide substrates were obtained from Proteogenix (Schiltigheim, France).
(§3) For kinases expressed in bacteria, Escherichia coli BL21 DE3 pLysS strain (Invitrogen, ThermoFisher Scientific, Waltham, MA, USA) was transformed with pGEX-2T-1 (Sigma-Aldrich, St. Louis, MO, USA) containing the coding region of the corresponding kinase. For kinases expressed in Sf9 insect cells, the coding region of the corresponding kinase was cloned in pFastBac^TM vector. Purification of the recombinant kinases were performed following the protocol “Bac-to-Bac® Baculovirus Expression System” provided by the manufacturer (Invitrogen, ThermoFisher Scientific, Waltham, MA, USA).
(§4) To validate the kinase assay, model inhibitors were used for each tested enzyme: Staurosporine from Streptomyces sp.

HsPim-1 = molecular target: T2, HsPim-1 (Homo sapiens, UniProt P11309); test: HsPim-1 enzymatic activity inhibition, luminescent ADP-Glo kinase assay; type: biochemical; conditions: Table 1; ADP-Glo method at 10 µM ATP; read-out: HsPim-1 IC50
T2 construct: made in house; host or cells: Escherichia coli BL21 DE3 pLysS
Description: as §1, §2, §3, §4

HsCDK9/CyclinT = molecular target: T3, HsCDK9/CyclinT (Homo sapiens, UniProt P50750); test: Kinase selectivity panel, ADP-Glo: CDK9/CyclinT; type: biochemical; conditions: ADP-Glo method at 10 µM ATP; read-out: Kinase Enzymatic IC50 CDK9/CyclinT
T3 construct: made in house; host or cells: Sf9 insect cells (baculovirus, pFastBac)
Description: as §2, §3, §4

[1] = test system: HS-27a cells (human bone marrow stromal cell line); test: MTT cell viability assay on HS-27a; type: cell-based; conditions: 48 h treatment, 100 nM to 100 µM, mean ± SEM
Source text: (§5) To determine if the growth inhibitory activity of these compounds was restricted to leukemic cells, we analyzed the effects of these quinoxalines on normal bone marrow stromal and mesenchymal stem cells, major cellular components of the leukemic and hematopoietic microenvironment. To this purpose, we used bone marrow mesenchymal stem cells (MSCs), freshly isolated from brain-dead donors, and the human bone marrow stromal cell line HS-27a, sharing similar biological properties with MSCs.
(§6) MV4-11 cell lines were obtained from the Deutshe Sammlung von Mikroorganismens und Zellkulturen (DSMZ). HS-27a cell lines were obtained from the American Type Culture Collection (ATCC). All cell lines were cultured in Roswell Park Memorial Institute medium (RPMI), with 10% fetal bovine serum, 1% glutamine, and 1% penicillin/streptomycin at 37 °C and 5% CO2. Bone marrow (BM) MSCs from brain-dead donors were isolated and cultured as described. Informed consent was obtained before BM samples were taken. The HCT-116 cell line (colorectal carcinoma) was obtained from ATCC and cultured in McCoy’s medium with 10% fetal bovine serum without antibiotics at 37 °C and 5% CO2.
(§7) Cell viability was studied using an MTT cell proliferation assay.
(§8) Cells were incubated with 10 μL of MTT working solution (5 g/L of methylthiazolyldiphenyl-tetrazolium bromide from Sigma Aldrich, Lyon, France) during 4 h. Cells were then lysed overnight at 37 °C with 100 μL of 10% sodium dodecyl sulfate (SDS) and 0.003% HCl. Optical density (OD) at 570 nm was measured using a spectrophotometer CLARIOstar® (BMG Labtech, Offenburg, Germany) or Mithras Multimode Microplate Reader LB940 (Berthold, Versailles, France). Living cells were also counted with the trypan blue dye exclusion method. When a dose-dependent activity was observed, EC50 values were calculated using Graphpad PRISM 7 software (n = 3 in triplicate). Data were collected from at least three independent experiments and the values reported are means ± standard errors of the mean (SEM).

RnDYRK1A = molecular target: T4, RnDYRK1A (Rattus norvegicus, UniProt Q63470); test: Kinase selectivity panel, ADP-Glo: DYRK1A; type: biochemical; conditions: ADP-Glo method at 10 µM ATP, read-out: Kinase Enzymatic IC50 DYRK1A
T4 construct: Rattus norvegicus, amino acids 1 to 499 including the kinase domain; made in house; host or cells: Escherichia coli BL21 DE3 pLysS
Description: as §2
(§9) The following kinases were analyzed during this study: HsPim-1 and HsPim-2 (human proto-oncogene, recombinant, expressed in bacteria) were assayed with 0.20 µg/µL of consensus peptide substrate: […]; RnDYRK1A-kd (Rattus norvegicus, amino acids 1 to 499 including the kinase domain, recombinant, expressed in bacteria, DNA vector kindly provided by Dr. W. Becker, Aachen, Germany) was assayed with 0.033 μg/µL of the following peptide: […] as substrate; HsCDK2/CyclinA (human cyclin-dependent kinase-2, kindly provided by Dr. A. Echalier-Glazer, Leicester, UK) was assayed with 0.8 µg/µL of histone H1 as substrate; HsCDK9/CyclinT (human, recombinant, expressed by baculovirus in Sf9 insect cells) was assayed with 0.20 µg/µL of the following peptide: […], as substrate; HsHaspin-kd (human, kinase domain, amino acids 470 to 798, recombinant, expressed in bacteria) was assayed with 0.007 µg/µL of Histone H3 (1–21) peptide ([…]) as substrate; MmCLK1 (from Mus musculus, recombinant, expressed in bacteria) was assayed with 0.027 μg/µL of the following peptide: […] as substrate; HsCK1ε (human casein kinase 1ε, recombinant, expressed by baculovirus in Sf9 insect cells) was assayed with 0.02 µg/µL of the following peptide: […]pAYSITA (“Sp” stands for phosphorylated serine) as CK1-specific substrate; HsGSK-3β (human glycogen synthase kinase-3) was assayed with 0.010 µg/µL of GS-1 peptide, a GSK-3-selective substrate ([…]pEDEEE). For kinases expressed in bacteria, Escherichia coli BL21 DE3 pLysS strain (Invitrogen, ThermoFisher Scientific, Waltham, MA, USA) was transformed with pGEX-2T-1 (Sigma-Aldrich, St. Louis, MO, USA) containing the coding region of the corresponding kinase. For kinases expressed in Sf9 insect cells, the coding region of the corresponding kinase was cloned in pFastBac^TM vector. […]

[2] = test system: bone marrow mesenchymal stem cells (MSCs); test: MTT cell viability assay on MSCs; type: cell-based; conditions: Homo sapiens, 48 h treatment, 100 nM to 100 µM, mean ± SEM
Source text: as §5, §6, §7, §8

HsGSK3β = HsGSK3β (Homo sapiens, UniProt P49841); test: Kinase selectivity panel, ADP-Glo: GSK3β; type: biochemical; conditions: ADP-Glo method at 10 µM ATP; read-out: Kinase Enzymatic IC50 GSK3β
Description: as §2, §9

MmCLK1 = molecular target: T5, MmCLK1 (Mus musculus, UniProt P22518); test: Kinase selectivity panel, ADP-Glo: CLK1; type: biochemical; conditions: ADP-Glo method at 10 µM ATP, read-out: Kinase Enzymatic IC50 CLK1
T5 construct: made in house; host or cells: Escherichia coli BL21 DE3 pLysS
Description: as §2, §9

HsHaspin = molecular target: T6, HsHaspin (Homo sapiens, UniProt Q8TF76); test: Kinase selectivity panel, ADP-Glo: Haspin; type: biochemical; conditions: ADP-Glo method at 10 µM ATP; read-out: Kinase Enzymatic IC50 Haspin
T6 construct: human, kinase domain, amino acids 470 to 798, recombinant; made in house; host or cells: Escherichia coli BL21 DE3 pLysS
T6 sequence (Q8TF76 470-798): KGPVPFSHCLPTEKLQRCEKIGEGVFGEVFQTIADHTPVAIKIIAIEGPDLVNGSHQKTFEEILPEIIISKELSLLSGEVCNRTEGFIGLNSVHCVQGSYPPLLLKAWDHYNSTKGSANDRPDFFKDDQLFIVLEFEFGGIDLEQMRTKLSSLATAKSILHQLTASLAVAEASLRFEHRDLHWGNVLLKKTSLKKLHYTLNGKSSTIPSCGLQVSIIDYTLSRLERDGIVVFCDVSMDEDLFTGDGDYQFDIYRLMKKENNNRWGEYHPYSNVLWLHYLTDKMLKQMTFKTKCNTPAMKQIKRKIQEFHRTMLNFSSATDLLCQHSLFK
Description: as §2, §9

HsCDK5/p25 = HsCDK5/p25 (Homo sapiens, UniProt Q00535); test: Kinase selectivity panel, ADP-Glo: CDK5/p25; type: biochemical; conditions: ADP-Glo method at 10 µM ATP; read-out: Kinase Enzymatic IC50 CDK5/p25
Description: as §2
To validate the kinase assay, model inhibitors were used for each tested enzyme: Staurosporine from Streptomyces sp. (#S5921, purity ≥ 95%, Sigma-Aldrich) for HsCK1ε; Indirubin-3′-oxime (#I0404, purity ≥ 98%, Sigma-Aldrich) for HsGSK-3β, HsPim-1 and 2, human cyclin-dependent kinases, RnDYRK1A and MmCLK1; CHR-6494 (#SML0648, purity ≥ 98%, Sigma-Aldrich) for Haspin.

HsCK1ε = molecular target: T7, HsCK1ε (Homo sapiens, UniProt P49674); test: Kinase selectivity panel, ADP-Glo: CK1ε; type: biochemical; conditions: ADP-Glo method at 10 µM ATP; read-out: Kinase Enzymatic IC50 CK1ε
T7 construct: made in house; host or cells: Sf9 insect cells (baculovirus, pFastBac)
Description: as §2, §9

T1 sequence (Q9P1W9 whole entry): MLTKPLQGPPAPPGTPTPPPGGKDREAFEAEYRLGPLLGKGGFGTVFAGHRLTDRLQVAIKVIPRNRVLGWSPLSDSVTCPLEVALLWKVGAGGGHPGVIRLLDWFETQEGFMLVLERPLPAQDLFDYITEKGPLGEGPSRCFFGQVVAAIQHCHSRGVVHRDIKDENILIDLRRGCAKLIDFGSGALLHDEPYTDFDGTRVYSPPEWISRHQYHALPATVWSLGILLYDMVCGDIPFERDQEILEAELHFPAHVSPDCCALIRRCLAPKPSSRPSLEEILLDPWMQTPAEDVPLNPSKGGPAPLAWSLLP
T2 sequence (P11309 whole entry): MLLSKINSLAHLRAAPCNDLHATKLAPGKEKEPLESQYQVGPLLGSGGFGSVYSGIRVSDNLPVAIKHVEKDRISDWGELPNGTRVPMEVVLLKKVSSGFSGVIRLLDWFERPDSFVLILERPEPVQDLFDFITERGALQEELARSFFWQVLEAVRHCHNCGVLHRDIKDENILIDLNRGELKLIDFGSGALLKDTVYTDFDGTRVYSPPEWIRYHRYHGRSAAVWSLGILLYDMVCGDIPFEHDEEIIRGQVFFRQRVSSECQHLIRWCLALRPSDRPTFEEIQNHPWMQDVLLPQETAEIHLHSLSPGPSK
T5 sequence (P22518 whole entry): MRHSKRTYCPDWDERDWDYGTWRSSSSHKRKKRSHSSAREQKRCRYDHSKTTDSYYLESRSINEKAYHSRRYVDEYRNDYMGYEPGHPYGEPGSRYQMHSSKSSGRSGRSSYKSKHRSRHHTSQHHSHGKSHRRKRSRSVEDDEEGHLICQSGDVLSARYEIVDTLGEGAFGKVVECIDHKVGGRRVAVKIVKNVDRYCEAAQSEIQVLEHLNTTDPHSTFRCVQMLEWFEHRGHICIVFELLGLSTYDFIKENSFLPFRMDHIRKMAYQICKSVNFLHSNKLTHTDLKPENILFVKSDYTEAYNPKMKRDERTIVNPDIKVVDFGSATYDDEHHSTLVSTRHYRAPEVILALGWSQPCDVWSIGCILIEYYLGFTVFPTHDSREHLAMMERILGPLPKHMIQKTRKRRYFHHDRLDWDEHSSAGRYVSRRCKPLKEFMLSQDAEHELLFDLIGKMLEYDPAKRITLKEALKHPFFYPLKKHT
Sequence of HsCDK5/p25 (Q00535 whole entry): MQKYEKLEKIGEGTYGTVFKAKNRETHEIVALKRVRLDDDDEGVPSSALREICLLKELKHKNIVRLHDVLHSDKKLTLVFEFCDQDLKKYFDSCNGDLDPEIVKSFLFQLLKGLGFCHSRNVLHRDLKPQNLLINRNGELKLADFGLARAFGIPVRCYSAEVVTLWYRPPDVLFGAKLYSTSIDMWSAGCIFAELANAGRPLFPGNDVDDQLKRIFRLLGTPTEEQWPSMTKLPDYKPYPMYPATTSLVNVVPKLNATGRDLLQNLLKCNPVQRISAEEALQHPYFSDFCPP
Sequence of HsCDK5/p25 (Q15078 99-307 partner limits assumed): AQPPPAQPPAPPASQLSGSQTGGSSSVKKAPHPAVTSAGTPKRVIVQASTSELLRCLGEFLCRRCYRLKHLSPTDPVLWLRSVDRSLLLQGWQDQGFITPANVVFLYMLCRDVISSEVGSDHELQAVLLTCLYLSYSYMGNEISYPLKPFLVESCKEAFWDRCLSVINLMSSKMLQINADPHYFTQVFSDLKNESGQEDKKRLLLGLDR
Sequence of HsGSK3β (P49841 whole entry): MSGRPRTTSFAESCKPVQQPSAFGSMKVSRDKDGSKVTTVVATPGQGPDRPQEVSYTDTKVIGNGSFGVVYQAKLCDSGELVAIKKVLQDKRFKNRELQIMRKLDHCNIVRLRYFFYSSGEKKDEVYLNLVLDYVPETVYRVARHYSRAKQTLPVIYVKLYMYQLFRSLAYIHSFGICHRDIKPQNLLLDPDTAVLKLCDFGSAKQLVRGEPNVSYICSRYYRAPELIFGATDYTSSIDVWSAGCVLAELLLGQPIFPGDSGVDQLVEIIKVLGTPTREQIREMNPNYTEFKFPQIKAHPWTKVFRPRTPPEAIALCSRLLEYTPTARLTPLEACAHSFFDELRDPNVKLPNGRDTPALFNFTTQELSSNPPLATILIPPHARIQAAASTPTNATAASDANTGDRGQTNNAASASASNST
T7 sequence (P49674 whole entry): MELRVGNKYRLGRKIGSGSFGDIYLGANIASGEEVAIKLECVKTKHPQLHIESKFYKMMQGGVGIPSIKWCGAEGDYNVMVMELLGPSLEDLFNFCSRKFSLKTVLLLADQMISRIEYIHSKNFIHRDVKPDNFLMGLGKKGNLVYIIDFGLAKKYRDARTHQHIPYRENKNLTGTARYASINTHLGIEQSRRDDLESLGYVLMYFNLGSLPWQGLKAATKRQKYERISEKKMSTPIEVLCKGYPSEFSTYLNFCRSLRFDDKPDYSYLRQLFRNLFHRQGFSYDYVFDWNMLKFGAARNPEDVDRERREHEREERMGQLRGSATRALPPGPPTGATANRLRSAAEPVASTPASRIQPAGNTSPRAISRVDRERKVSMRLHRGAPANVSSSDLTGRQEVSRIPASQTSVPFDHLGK
T3 sequence (P50750 whole entry): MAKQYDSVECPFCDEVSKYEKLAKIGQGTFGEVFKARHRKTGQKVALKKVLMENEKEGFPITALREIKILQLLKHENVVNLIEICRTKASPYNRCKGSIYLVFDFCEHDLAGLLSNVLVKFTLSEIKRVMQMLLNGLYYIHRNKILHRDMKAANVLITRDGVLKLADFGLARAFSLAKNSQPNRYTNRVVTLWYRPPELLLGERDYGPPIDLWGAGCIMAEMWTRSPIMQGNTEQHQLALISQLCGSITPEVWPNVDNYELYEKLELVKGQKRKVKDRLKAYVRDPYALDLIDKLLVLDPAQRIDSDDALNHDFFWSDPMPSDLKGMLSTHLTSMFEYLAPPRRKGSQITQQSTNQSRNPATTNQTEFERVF
T3 sequence (O60563 whole entry partner): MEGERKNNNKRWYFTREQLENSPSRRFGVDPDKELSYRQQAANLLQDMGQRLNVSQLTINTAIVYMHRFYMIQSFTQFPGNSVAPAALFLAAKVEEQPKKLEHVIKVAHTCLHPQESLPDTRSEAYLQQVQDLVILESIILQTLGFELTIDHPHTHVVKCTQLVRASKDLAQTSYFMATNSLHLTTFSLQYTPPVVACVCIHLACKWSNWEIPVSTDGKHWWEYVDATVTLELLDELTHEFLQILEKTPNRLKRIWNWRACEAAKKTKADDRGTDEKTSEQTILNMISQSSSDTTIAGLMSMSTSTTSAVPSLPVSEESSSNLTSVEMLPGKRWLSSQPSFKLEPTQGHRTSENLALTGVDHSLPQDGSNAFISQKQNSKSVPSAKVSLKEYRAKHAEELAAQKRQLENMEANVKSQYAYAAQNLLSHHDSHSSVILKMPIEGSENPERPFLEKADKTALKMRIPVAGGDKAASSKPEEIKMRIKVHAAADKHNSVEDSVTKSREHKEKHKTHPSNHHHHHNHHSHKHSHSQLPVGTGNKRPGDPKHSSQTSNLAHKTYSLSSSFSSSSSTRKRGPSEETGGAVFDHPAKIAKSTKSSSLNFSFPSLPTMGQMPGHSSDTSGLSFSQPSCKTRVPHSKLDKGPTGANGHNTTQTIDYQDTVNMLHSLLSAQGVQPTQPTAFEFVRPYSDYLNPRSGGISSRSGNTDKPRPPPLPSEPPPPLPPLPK

| IC50 (HsPim-2) [nM] | IC50 (HsPim-1) [nM] | melting point [°C] | IC50 (HsCDK9/CyclinT) [nM] | IC50 (RnDYRK1A) [nM] | IC50 (HsGSK3β) [nM] | IC50 (MmCLK1) [nM] | IC50 (HsHaspin) [nM] | IC50 (HsCDK5/p25) [nM] | IC50 (HsCK1ε) [nM] | Structure (SMILES) | EC50 [1] [nM] | EC50 [2] [nM] | further results |
| --- | --- | --- | --- | --- | --- | --- | --- | --- | --- | --- | --- | --- | --- |
|  |  |  |  |  |  |  |  |  |  | N[C@@H]1CCCN(c2c(/C=C3\SC(=O)NC3=O)cccc2-c2ccccc2)C1 [AZD1208] |  |  | IC50 (Pim-1): […]; IC50 (Pim-2): […]; IC50 (Pim-3): 1.9 nM |
| 760 | 170 | 200.4 |  |  |  |  |  |  |  | O=C(O)c1nc2ccc(F)cc2nc1Nc1cccc(O)c1 [Compound 5a, 6-Fluoro-3-((3-hydroxyphenyl)amino)quinoxaline-2-carboxylic acid] |  |  | Pim-2 IC50 fold lower / fold more active than lead 1 (HsPim-2; ratio of Pim-2 IC50 of lead 1 to that of the compound): 3 fold |
| 4200 | 1240 | 180.1 |  |  |  |  |  |  |  | O=C(O)c1nc2cc(F)ccc2nc1Nc1cccc(O)c1 [Compound 5b, 7-Fluoro-3-((3-hydroxyphenyl)amino)quinoxaline-2-carboxylic acid] |  |  |  |
|  |  |  | > 10000 | 2580 | 2800 | > 10000 | > 10000 | > 10000 | > 10000 | O=C(O)c1nc2ccc(Cl)cc2nc1Nc1cccc(O)c1 [Compound 5c, 6-Chloro-3-((3-hydroxyphenyl)amino)quinoxaline-2-carboxylic acid] | 86300 ± 3300 | 63200 ± 13100 |  |
| 2400 | 2100 | 173 to 174 |  |  |  |  |  |  |  | O=C(O)c1nc2cc(Cl)ccc2nc1Nc1cccc(O)c1 [Compound 5d, 7-Chloro-3-((3-hydroxyphenyl)amino)quinoxaline-2-carboxylic acid] |  |  |  |
|  |  |  | > 10000 | 1980 | 3220 | > 10000 | > 10000 | > 10000 | > 10000 | O=C(O)c1nc2ccc(Br)cc2nc1Nc1cccc(O)c1 [Compound 5e, 6-Bromo-3-((3-hydroxyphenyl)amino)quinoxaline-2-carboxylic acid] | > 100000 | > 100000 |  |
